Molecular target: T1, Bcl-2-related protein A1 (Homo sapiens, UniProt Q16548)
T1 sequence (Q16548 whole entry): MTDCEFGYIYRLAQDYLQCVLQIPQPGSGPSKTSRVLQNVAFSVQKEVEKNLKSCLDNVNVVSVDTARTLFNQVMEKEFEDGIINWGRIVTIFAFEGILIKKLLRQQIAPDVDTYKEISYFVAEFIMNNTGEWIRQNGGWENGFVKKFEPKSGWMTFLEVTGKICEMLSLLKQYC
Assay: Bfl-1/Bim complex disruptors – biochemical, multiplexed, bead-based flow cytometry, dose response (AID 1320)
Settings: pH 7.4, 4 °C

EC50 [nM] | EC50 (inactive by the depositor's call) [nM] | Structure (SMILES)
1030 | – | CCN(CC)C(=O)COC(=O)c1cc(-c2ccco2)nc2ccccc12 [SMR000377201]
1770 | – | Cn1c(=O)c(C(=O)COC(=O)c2cc(-c3ccco3)nc3ccccc23)c(N)n(Cc2ccccc2)c1=O [[2-(6-amino-1-benzyl-3-methyl-2,4-dioxopyrimidin-5-yl)-2-oxoethyl] 2-(furan-2-yl)quinoline-4-carboxylate]
– | 550 | CCOC(=O)CSC1=NC(=O)/C(=C/c2ccc(Br)cc2)S1 [ethyl 2-[[(5Z)-5-[(4-bromophenyl)methylidene]-4-oxo-1,3-thiazol-2-yl]sulfanyl]acetate]
3200 | – | CCOC(=O)C1=C(Cc2ccc(C)cc2)C(=O)c2ccccc2C1=O [ethyl 3-[(4-methylphenyl)methyl]-1,4-bis(oxidanylidene)naphthalene-2-carboxylate]

— BindingDB's records for doi:10.7270/Q2CN728N (Nmmlsc, 2008)
